Paper PMC5641481 (Science (New York, N.Y.), 2017)

Columns and labels:
FAAH [1] = molecular target: T1, FAAH (Homo sapiens, UniProt O00519); assay: competitive gel-based ABPP, HEK293T cell lysates; format: biochemical; conditions: in vitro, HEK293T recombinantly expressing human enzyme
T1 sequence (O00519 1-579): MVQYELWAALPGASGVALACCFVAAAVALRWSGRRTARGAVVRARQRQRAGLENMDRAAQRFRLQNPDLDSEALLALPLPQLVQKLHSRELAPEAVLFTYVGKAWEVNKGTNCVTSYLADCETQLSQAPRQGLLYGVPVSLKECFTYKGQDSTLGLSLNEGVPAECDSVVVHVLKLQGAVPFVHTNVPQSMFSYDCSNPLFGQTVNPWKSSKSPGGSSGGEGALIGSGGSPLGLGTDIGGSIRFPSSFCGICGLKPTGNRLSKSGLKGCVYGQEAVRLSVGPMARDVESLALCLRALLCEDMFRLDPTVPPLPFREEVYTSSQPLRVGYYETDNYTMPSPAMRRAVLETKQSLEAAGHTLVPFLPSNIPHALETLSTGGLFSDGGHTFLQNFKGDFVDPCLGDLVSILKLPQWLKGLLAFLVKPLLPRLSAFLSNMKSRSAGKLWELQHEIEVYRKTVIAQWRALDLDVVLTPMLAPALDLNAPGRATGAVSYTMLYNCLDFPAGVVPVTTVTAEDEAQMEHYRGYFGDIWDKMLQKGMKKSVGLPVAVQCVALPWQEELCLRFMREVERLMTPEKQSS

ABHD6 [2] = molecular target: T2, ABHD6 (Homo sapiens, UniProt Q9BV23); assay: competitive gel-based ABPP, intact HEK293T cells; format: cell-based; conditions: ABHD6, in situ (4 h)
T2 sequence (Q9BV23 1-337): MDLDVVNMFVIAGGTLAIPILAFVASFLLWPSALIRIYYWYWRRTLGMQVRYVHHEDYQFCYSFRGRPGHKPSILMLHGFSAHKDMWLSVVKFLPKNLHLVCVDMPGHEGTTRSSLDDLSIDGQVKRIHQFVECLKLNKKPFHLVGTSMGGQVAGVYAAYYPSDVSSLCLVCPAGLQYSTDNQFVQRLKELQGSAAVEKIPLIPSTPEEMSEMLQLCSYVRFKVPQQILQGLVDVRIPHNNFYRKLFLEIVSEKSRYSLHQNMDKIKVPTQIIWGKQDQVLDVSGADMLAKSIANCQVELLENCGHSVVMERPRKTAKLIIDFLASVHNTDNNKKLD

PNPLA6 = PNPLA6 (Homo sapiens, UniProt Q8IY17); conditions: PNPLA6, in situ (24 h), gel-based ABPP, HEK293T
PNPLA6, sequence (Q8IY17 whole entry): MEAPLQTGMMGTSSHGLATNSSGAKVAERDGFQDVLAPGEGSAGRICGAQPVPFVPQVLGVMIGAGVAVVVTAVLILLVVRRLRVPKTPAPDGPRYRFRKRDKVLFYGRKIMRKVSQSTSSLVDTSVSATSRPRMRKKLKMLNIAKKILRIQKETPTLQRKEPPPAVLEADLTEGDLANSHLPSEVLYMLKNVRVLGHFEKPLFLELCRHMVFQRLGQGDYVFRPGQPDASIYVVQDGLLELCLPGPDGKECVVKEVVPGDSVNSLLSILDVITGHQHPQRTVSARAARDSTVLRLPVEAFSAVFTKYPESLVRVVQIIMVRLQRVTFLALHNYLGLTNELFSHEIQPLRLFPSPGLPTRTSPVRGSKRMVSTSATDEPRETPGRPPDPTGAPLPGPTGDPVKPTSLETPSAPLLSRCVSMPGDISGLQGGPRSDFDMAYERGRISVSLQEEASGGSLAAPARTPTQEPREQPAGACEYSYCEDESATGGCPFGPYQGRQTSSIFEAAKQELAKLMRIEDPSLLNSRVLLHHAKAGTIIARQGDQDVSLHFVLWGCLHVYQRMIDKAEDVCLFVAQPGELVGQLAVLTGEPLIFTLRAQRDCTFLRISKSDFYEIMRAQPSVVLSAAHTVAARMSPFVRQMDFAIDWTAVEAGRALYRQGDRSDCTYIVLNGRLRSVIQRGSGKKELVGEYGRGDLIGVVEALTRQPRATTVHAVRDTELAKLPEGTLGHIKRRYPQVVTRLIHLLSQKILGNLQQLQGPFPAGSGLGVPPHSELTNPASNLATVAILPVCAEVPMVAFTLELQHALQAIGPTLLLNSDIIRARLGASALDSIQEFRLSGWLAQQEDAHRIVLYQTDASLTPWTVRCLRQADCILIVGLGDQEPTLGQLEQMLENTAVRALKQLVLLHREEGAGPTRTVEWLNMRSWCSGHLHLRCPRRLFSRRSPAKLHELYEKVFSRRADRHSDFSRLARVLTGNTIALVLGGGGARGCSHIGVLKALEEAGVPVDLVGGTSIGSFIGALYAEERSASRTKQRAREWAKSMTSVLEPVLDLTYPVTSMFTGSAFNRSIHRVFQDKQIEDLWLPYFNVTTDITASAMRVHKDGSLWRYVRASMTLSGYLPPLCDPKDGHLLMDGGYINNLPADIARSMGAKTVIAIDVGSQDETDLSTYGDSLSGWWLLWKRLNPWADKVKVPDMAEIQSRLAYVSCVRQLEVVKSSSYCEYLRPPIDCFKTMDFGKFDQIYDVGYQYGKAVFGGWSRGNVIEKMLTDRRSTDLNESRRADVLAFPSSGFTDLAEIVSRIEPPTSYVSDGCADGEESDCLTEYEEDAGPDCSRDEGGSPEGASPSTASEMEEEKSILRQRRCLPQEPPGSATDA

FAAH [3] = molecular target: T1, FAAH; assay: MS-based ABPP in SW620 cells; format: cell-based; conditions: all tested concentrations (0.2, 10, and 50 μM)
FAAH [4] = molecular target: T1, FAAH; assay: anandamide substrate hydrolysis assay, intact transfected HEK293T cells; format: cell-based; conditions: human FAAH in transfected HEK293T cells, in situ
ABHD6 [5] = molecular target: T2, ABHD6; assay: ABPP of human frontal cortex proteome; format: biochemical; conditions: human frontal cortex proteome (post-mortem)
ABHD6 [6] = molecular target: T2, ABHD6; assay: MS-based ABPP in SW620 cells; format: cell-based
FAAH [7] = molecular target: T1, FAAH; assay: ABPP of human frontal cortex proteome; format: biochemical; conditions: human frontal cortex proteome (post-mortem)
FAAH2 = molecular target: T3, FAAH2 (Homo sapiens, UniProt Q6GMR7); assay: competitive gel-based ABPP, intact HEK293T cells; format: cell-based; conditions: FAAH2, in situ (4 h)
T3 sequence (Q6GMR7 1-532): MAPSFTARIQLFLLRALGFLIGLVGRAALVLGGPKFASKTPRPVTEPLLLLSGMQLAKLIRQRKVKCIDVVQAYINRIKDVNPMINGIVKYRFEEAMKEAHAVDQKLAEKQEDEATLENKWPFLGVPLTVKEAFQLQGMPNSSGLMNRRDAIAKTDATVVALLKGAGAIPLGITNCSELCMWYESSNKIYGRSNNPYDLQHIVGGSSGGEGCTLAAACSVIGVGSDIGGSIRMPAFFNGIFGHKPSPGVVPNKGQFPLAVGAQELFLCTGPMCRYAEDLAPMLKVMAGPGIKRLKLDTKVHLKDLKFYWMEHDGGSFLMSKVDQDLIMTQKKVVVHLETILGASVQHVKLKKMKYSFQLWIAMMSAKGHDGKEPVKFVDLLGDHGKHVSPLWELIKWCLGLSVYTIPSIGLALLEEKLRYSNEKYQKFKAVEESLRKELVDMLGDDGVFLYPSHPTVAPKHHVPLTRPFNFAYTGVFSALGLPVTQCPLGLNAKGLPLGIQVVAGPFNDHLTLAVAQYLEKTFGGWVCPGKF

FAAH [8] = molecular target: T1, FAAH; assay: anandamide substrate hydrolysis assay, HEK293T cell lysates; format: biochemical; conditions: in vitro
FAAH [9] = molecular target: T1, FAAH; assay: competitive gel-based ABPP, intact HEK293T cells; format: cell-based; conditions: in situ (4 h)
[10] = tested on: other proteins of the endocannabinoid system, endocannabinoid-binding TRP ion channels; assay: interaction with other endocannabinoid system proteins and TRP channels
rat FAAH = molecular target: T4, rat FAAH (Rattus norvegicus, UniProt P97612); assay: substrate hydrolysis assay; format: biochemical; conditions: in vitro
T4 sequence (P97612 1-579): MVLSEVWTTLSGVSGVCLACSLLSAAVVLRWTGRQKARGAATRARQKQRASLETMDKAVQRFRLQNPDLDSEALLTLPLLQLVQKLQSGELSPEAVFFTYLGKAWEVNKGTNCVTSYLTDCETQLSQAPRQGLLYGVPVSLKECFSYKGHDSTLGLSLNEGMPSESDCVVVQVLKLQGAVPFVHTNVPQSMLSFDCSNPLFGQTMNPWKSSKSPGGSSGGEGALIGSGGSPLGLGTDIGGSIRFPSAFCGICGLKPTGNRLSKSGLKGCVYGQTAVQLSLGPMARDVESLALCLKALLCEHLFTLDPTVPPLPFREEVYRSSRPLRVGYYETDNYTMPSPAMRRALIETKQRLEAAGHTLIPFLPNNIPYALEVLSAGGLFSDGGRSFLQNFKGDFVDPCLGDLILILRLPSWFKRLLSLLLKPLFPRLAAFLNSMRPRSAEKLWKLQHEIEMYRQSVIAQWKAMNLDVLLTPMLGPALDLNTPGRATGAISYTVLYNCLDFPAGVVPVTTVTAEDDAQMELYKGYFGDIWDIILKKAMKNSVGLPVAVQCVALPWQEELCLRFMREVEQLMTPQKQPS

ABHD11 = molecular target: T5, ABHD11 (Homo sapiens, UniProt Q8NFV4); assay: competitive gel-based ABPP, intact HEK293T cells; format: cell-based; conditions: ABHD11, in situ (4 h)
T5 sequence (Q8NFV4 1-306): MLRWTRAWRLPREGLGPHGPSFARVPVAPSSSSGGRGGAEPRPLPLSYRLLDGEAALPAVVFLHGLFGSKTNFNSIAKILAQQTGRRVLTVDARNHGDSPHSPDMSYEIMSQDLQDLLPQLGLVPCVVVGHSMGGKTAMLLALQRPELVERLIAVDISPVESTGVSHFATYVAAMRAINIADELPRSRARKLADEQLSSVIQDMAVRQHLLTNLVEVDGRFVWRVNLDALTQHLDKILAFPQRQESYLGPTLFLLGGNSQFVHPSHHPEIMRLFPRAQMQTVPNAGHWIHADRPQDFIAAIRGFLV

CES2 = molecular target: T6, CES2 (Homo sapiens, UniProt O00748); assay: competitive gel-based ABPP, intact HEK293T cells; format: cell-based; conditions: CES2, in situ (4 h)
T6 sequence (O00748 27-559): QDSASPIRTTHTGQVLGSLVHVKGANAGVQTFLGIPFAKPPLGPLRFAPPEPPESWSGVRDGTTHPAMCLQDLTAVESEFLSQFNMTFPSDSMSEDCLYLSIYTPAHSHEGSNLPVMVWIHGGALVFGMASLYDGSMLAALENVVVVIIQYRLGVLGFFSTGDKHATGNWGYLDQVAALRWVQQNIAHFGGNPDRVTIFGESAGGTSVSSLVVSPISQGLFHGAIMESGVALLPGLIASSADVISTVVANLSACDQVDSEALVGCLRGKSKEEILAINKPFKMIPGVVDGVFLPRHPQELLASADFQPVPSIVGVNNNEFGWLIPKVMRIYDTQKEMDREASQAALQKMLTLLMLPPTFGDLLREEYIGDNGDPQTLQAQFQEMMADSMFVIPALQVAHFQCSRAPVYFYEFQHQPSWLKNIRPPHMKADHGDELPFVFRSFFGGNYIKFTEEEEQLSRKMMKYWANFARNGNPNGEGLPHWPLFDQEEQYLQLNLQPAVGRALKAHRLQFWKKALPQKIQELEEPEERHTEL

Structure (SMILES)	IC50 (FAAH [1]) [nM]	IC50 (ABHD6 [2]) [nM]	IC50 (PNPLA6) [nM]	engagement of human FAAH (FAAH [3])	IC50 (FAAH [4]) [nM]	cross-reactivity with ABHD6 (ABHD6 [5])	inhibition of ABHD6 (ABHD6 [6]; 10 μM, 4 h) [%]	inhibition of ABHD6 (ABHD6 [6]; 50 μM, 24 h) [%]	cross-reactivity with FAAH (FAAH [7])	IC50 (FAAH2) [nM]	IC50 (FAAH [8]; human FAAH) [nM]	IC50 (FAAH [9]) [nM]	interaction with other proteins of the endocannabinoid system or endocannabinoid-binding TRP ion channels [10]	IC50 (rat FAAH) [nM]	IC50 (ABHD11) [nM]	IC50 (CES2) [nM]	IC50 (FAAH [8]; FAAH) [nM]
CN(C(=O)n1cnc(-c2ccc[n+]([O-])c2)c1)C1CCCCC1 [BIA 10-2474]	7500	81	11000	fully engaged	50 to 70	cross-reactivity	> 90	> 90	cross-reactivity	400	≥ 1000	49	did not interact	≥ 1000	> 10000	–	–
CN(C(=O)n1cnc(-c2cccnc2)c1)C1CCCCC1 [BIA 10-2639]	4100	79	–	–	–	–	–	–	–	100	–	49	–	–	–	630	–
O=C(Nc1cccnn1)N1CCC(=Cc2cccc(Oc3ccc(C(F)(F)F)cn3)c2)CC1 [PF04457845]	4	> 10000	> 50000	fully engaged	–	–	–	–	–	590	–	11	did not interact	–	> 10000	> 10000	1 to 10
